# Measured values: patent publication US20050085509A1, “Piperidin-2-one derivative compounds and drugs containing these compounds as the active ingredient” (priority 2001, published 2005)
# pIC50: −log10 of the molar value.
# Assays:
# [1] = target: T1, recombinant human p38αMAP kinase (Homo sapiens, UniProt Q16539); assay: p38αMAP kinase inhibitory activity (1): ATF-2 phosphorylation, Western blotting; type: biochemical; settings: Western blotting with anti-phosphorylated ATF-2 antibody; FIG. 1
# T1 construct: purchased Upstate Biotechnology Inc. #14-251
# T1 sequence (Q16539 whole entry): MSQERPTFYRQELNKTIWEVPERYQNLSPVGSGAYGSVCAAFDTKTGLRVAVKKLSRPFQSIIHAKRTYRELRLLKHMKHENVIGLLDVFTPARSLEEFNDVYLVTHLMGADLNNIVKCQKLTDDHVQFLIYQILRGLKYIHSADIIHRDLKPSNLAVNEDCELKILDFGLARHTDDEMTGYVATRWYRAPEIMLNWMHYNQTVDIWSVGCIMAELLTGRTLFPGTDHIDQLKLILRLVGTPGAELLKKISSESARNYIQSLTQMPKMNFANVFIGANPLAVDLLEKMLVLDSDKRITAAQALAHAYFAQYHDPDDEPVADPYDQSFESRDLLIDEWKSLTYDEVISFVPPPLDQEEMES
# Source text: (1) Study of p38αMAP Kinase Inhibitory Activity (1)
# Using activation transcription factor 2 (activating transcription factor 2; ATF-2, Cell Signaling Inc., #9224L) which is a substrate of p38αMAP kinase, the inhibitory effect of the compound of the present invention on the ATF-2 phosphorylation by recombinant human p38αMAP kinase (Upstate Biotechnology Inc., #14-251) was studied by the Western-blotting method using the anti-phosphorylated ATF-2 antibody (Cell Signaling Inc., #9221L). In other words, 10 μL of a solution of the compound of the present invention at a known concentration was added to 10 μL of the kinase buffer (Cell Signaling Inc., #9802) containing recombinant human p38αMAP kinase (100 ng/tube) and pre-incubated for 10 minutes at 30° C. Then, 20 μL of adenosine triphosphate (ATP)/ATF-2 mixture was added and after the incubation of 30 minutes at 30° C., 20 μL of SDS buffer (187.5 mM Tris/6% SDS/30% glycerol/150 mM DTT/0.03% bromophenol blue) was added to stop the enzyme reaction. After heating at 100° C. for 5 minutes, mixing and centrifugation were conducted. After re-mixing, 20 μL of the sample was subjected to an electrophoresis on SDS-PAGE gel (10-20%, Daiichi Pure Chemicals Co., Ltd.). […] After washing with TBS-T solution, phosphorylated ATF-2 was detected using Western blotting detection reagent (Amersham Pharmacia Biotech).
# THP-1 = assay: Inhibition activity against TNF-α production using human cell line THP-1; type: cell-based; settings: 1.5 h, THP-1 cells, LPS stimulation, 90 minutes, ELISA, read-out: IC50, inhibition of LPS-induced TNF-α production
# Method: (4) Inhibition Activity Against TNF-α Production Using Human Cell Line
# Using THP-1, which is a human monocyte cell line, the inhibition effect of the compound of the present invention on the TNF-α production induced by lipopolyliposaccharide (LPS) stimulation was studied.
# Each 50 μL of lipopolyliposaccharide (LPS; Difco #3120-25-0) prepared at the concentration of 40 ng/mL using RPMI-1640 medium containing 10% fetal calf serum (hereinafter abbreviated as RPMI-1640) and RPMI-1640 containing the compound of the present invention was added to a 96-well plate for tissue culture. […] After completion of the reaction, the culture medium supernatant was recovered and the amount of produced TNF-α was measured using an ELISA kit (Invitrogen, #850090192).
# The inhibition activity against TNF-α production, which is the effect of the compound of the present invention, was calculated as an inhibition rate (%) by the following formula. Inhibition rate (%)={(AC−AX)/(AC−AB)}×100 • AB: Measured value without LPS induction • AC: Measured value with LPS induction in the absence of the compound • AX: Measured value with LPS induction in the presence of the compound
# [2] = target: T1, recombinant human p38αMAP kinase; assay: p38αMAP kinase inhibitory activity (2): ATF-2 phosphorylation, Alpha Screen; type: biochemical; settings: 30° C., 30 minutes, read-out: IC50, inhibition of ATF-2 phosphorylation by p38αMAP kinase
# Method: (2) Study of p38αMAP Kinase Inhibitory Activity (2)
# Using activation transcription factor 2 (hereinafter abbreviated as ATF-2) which is a substrate of p38αMAP kinase, the inhibition effect of the compound of the present invention on the ATF-2 phosphorylation by recombinant human p38αMAP kinase was examined.
# A kinase buffer (25 mM Tris-HCl (pH 7.5), 5 mM β-glycerophosphate, 2 mM dithiothreitol, 0.1 mM Na3VO4, 10 mM MgCl2) containing recombinant human p38αMAP kinase (Upstate Biotechnology #14-251) (5 μL) was added to a 384-well plate for fluorescence measurement ([…] protein/well). […] Separately, 5 μL of a substrate mixture prepared with the kinase buffer (biotinylated ATF-2 (5 μg/mL) (Upstate Biotechnology, #14-432), adenosine triphosphate (90 μmol/L) (Sigma #FL-AAS) and anti-phosphorylated ATF-2 antibody (20-fold dilution) (Cell Signaling Technology, #9221L) were added and an enzyme reaction was carried out at 30° C. for 30 minutes. After completion of the reaction, the enzyme reaction was terminated by adding 5 μL of Hepes buffer containing 0.25% BSA and 100 mM EDTA. The amount of complex of phosphorylated ATF2 and anti-phosphorylated ATF2 generated by this reaction was measured using Alpha Screen™ Rabbit Detection kit (Packard #6760607). […]
compound,measurement,setting,value
"O=C1CCC(Cc2ccc(F)cc2F)CN1c1c(Cl)cccc1Cl (stereo not drawn) [Example 1 (1), 1-(2,6-dichlorophenyl)-5-(2,4-difluorobenzyl)piperidin-2-one]",concentration at which ATF-2 phosphorylation by p38αMAP kinase was inhibited,[1],≥ 0.3 µM
same,pIC50,THP-1,7.84
same,pIC50,[2],7.37
